We go through one substance from paper PMC2715282 (Phytochemical analysis : PCA, 2009).

The assay has as its target 5-HT7 serotonin receptor (Homo sapiens, UniProt P34969). Nature of the assay: competitive radioligand binding versus [3H]LSD. It counts as cell-based.

Chain of 5-HT7 serotonin receptor (P34969 whole entry): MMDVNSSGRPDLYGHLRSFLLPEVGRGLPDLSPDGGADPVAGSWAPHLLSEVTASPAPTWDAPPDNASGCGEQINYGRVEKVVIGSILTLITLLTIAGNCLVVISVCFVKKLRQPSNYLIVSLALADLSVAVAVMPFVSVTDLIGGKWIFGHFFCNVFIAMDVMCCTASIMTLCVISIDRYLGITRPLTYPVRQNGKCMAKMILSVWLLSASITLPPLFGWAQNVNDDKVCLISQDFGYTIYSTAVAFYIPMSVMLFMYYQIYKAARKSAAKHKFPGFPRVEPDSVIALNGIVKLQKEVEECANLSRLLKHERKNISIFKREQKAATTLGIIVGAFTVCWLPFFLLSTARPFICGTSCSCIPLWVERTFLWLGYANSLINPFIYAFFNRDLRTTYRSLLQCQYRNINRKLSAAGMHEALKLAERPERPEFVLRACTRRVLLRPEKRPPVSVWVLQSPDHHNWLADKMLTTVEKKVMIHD

The substance cimicifugic acid KK [compound 4] came in with an IC50 of 100 µM.
